US20080255186A1, “Pyrazolo[3,4-B]Pyridine Compound, and Its Use as a Pde4 Inhibitor” (priority 2005, published 2008)

Biological target: T1, PDE6 (from bovine retina) (Bos taurus, UniProt P11541+P23439)
T1 construct: PDE6 can be purified from bovine retina; from tissue; host or cells: bovine retina
T1 sequence (P11541 2-856 limits assumed): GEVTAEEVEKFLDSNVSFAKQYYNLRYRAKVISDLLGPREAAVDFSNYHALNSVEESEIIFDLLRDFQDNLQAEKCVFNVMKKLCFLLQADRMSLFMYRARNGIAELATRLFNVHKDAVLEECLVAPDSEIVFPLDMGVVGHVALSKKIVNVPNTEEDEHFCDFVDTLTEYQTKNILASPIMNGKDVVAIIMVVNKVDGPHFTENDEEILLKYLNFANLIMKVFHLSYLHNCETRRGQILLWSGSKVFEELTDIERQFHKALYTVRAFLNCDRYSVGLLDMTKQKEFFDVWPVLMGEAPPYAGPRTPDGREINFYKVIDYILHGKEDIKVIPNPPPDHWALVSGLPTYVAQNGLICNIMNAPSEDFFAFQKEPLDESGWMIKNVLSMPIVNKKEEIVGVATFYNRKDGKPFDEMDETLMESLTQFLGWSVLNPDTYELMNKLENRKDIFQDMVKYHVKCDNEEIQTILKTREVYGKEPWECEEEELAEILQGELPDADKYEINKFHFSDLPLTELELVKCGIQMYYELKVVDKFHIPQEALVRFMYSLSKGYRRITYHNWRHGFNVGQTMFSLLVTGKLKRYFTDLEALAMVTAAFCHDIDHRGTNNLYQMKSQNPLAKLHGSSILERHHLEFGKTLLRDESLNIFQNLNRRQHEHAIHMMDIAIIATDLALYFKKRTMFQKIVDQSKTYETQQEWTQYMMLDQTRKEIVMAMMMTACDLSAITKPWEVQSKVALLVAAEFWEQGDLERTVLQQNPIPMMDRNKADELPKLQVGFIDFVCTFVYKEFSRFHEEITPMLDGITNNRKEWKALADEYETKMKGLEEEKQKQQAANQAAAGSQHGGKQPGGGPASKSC
T1 sequence (P23439 2-850 limits assumed): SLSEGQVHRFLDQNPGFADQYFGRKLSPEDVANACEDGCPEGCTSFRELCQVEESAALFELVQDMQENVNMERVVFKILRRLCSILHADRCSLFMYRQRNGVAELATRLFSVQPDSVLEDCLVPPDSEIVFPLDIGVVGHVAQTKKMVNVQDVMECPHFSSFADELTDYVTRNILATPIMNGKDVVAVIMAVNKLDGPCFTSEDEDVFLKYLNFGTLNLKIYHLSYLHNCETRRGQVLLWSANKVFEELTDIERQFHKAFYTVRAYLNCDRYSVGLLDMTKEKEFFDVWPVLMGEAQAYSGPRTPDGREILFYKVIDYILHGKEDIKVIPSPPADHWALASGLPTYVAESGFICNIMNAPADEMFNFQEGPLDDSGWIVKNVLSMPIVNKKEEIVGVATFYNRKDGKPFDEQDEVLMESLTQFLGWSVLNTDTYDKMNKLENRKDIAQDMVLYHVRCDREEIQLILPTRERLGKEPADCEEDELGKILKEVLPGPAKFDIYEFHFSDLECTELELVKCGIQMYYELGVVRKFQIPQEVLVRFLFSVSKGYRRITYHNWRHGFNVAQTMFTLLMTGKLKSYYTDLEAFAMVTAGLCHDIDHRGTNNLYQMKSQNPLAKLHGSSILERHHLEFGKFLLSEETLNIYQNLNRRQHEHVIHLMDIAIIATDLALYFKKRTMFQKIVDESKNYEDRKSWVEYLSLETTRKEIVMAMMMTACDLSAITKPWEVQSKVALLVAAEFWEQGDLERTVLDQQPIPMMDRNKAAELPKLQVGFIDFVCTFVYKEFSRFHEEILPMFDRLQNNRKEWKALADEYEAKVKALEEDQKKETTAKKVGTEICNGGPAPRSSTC
Test: PDE6 inhibition (FP or SPA general type of assay)
Format: biochemical
Details: in the particular assays used
Source text: PDE6 can be purified from bovine retina as described by: P. Catty and P. Deterre, “Activation and solubilization of the retinal cGMP-specific phosphodiesterase by limited proteolysis”, Eur. J. Biochem., 1991, 199, 263-269; A. Tar et al. “Purification of bovine retinal cGMP phosphodiesterase”, Methods in Enzymology, 1994, 238, 3-12; and/or D. Srivastava et al. “Effects of magnesium on cyclic GMP hydrolysis by the bovine retinal rod cyclic GMP phosphodiesterase”, Biochem. J., 1995, 308, 653-658.
The ability of compounds to inhibit catalytic activity at PDE4B or 4D (human recombinant), PDE3 (from bovine aorta), PDE5 (human recombinant) or PDE6 (from bovine retina) can optionally be determined by Scintillation Proximity Assay (SPA) in a 96-well format.
Test compounds (as a solution in DMSO, suitably about 2 microlitre (ul) volume of DMSO solution) are preincubated at ambient temperature (room temperature, e.g. 19-23° C.) in Wallac Isoplates (code 1450-514) with PDE enzyme in 50 mM Tris-HCl buffer pH 7.5, 8.3 mM MgCl2, 1.7 mM EGTA, 0.05% (w/v) bovine serum albumin for 10-30 minutes (usually 30 minutes). […] Bound radioactive product is measured using a WALLAC TRILUX 1450 Microbeta scintillation counter. […] Curves are analysed using ActivityBase and XLfit (ID Business Solutions Limited, 2 Ocean Court, Surrey Research Park, Guildford, Surrey GU2 7QB, United Kingdom). […]

CCc1nc2c(cnn2CC)c(NC2CCOCC2)c1CNC(=O)c1cc(C)no1 [Example 1, N-{[1,6-diethyl-4-(tetrahydro-2H-pyran-4-ylamino)-1H-pyrazolo[3,4-b]pyridin-5-yl]methyl}-3-methyl-5-isoxazolecarboxamide]
PDE4B pIC50 compared with PDE6 pIC50 (selectivity): inhibits PDE4B more strongly than it inhibits PDE3, PDE5 and PDE6
